Key:
[1] = target: Voltage-gated inwardly rectifying potassium channel KCNH2 (Homo sapiens, UniProt Q12809); test: Inhibition of human ERG channel overexpressed in Chinese hamster CHOK1 cells by whole cell voltage clamp assay; assay type: cell-based, CHO-K1
[2] = Half life in human; assay type: ADME, organism-based; settings: in vivo
[3] = target: Dihydroorotate dehydrogenase (quinone), mitochondrial (Rattus norvegicus, UniProt Q63707); test: Inhibition of rat purified recombinant DHODH
[4] = target: T1, Dihydroorotate dehydrogenase (Plasmodium falciparum, UniProt Q54A96); test: Inhibition of plasmodium falciparum DHODH assessed as inhibition of [14C]bicarbonate incorporation into pyrimidine nucleotide by HPLC analysis
T1 sequence (Q54A96 whole entry): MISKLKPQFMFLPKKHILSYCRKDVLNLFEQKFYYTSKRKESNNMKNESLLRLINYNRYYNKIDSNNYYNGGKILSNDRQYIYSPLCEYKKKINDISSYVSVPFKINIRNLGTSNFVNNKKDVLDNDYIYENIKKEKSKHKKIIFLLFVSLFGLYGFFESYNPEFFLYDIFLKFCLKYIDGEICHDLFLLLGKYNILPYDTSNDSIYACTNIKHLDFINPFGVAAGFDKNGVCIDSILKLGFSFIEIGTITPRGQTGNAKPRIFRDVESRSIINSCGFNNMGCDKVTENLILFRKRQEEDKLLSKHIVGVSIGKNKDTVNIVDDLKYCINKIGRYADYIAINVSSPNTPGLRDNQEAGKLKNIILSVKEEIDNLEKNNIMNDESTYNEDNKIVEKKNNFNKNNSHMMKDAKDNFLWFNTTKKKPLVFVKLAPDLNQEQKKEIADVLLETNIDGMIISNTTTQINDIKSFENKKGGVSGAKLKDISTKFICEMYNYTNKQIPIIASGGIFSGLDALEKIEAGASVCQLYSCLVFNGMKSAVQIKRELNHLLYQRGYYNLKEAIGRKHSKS

[5] = target: T2, Dihydroorotate dehydrogenase (quinone), mitochondrial (Homo sapiens, UniProt Q02127); test: Inhibition of human purified recombinant DHODH
[6] = target: T2, Dihydroorotate dehydrogenase (quinone), mitochondrial; test: Competitive inhibition of human purified recombinant DHODH in presence of cofactor ubiquinone
[7] = target: Dihydroorotate dehydrogenase (quinone), mitochondrial (Rattus norvegicus) (UniProt Q63707); test: Competitive inhibition of rat purified recombinant DHODH in presence of cofactor ubiquinone
Chain of Dihydroorotate dehydrogenase (quinone), mitochondrial (Rattus norvegicus) (Q63707 whole entry): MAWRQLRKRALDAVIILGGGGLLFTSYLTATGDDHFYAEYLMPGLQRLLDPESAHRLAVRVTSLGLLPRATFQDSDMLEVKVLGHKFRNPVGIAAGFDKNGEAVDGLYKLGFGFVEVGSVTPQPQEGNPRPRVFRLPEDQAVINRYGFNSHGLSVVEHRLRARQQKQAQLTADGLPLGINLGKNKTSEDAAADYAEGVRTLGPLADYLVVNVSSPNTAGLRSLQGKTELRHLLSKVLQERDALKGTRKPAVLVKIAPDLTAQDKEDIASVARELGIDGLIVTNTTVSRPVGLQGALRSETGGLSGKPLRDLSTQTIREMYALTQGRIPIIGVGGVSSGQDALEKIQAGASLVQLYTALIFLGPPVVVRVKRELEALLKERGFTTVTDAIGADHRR

T2 sequence (Q02127 whole entry): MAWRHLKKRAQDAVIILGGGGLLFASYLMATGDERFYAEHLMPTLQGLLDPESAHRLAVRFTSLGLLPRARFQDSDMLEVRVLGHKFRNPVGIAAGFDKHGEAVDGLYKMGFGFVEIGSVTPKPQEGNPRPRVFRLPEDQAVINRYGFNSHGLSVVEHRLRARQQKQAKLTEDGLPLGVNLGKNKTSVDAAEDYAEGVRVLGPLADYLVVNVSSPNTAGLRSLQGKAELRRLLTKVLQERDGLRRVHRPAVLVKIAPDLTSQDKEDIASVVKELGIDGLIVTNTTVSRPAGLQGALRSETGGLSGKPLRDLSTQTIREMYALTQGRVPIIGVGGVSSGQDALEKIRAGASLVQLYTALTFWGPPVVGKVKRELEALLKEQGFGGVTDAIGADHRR
Chain of Dihydroorotate dehydrogenase (quinone), mitochondrial (Rattus norvegicus, UniProt Q63707) (Q63707 whole entry): as the sequence (Q63707 whole entry) above
Chain of Voltage-gated inwardly rectifying potassium channel KCNH2 (Q12809 whole entry): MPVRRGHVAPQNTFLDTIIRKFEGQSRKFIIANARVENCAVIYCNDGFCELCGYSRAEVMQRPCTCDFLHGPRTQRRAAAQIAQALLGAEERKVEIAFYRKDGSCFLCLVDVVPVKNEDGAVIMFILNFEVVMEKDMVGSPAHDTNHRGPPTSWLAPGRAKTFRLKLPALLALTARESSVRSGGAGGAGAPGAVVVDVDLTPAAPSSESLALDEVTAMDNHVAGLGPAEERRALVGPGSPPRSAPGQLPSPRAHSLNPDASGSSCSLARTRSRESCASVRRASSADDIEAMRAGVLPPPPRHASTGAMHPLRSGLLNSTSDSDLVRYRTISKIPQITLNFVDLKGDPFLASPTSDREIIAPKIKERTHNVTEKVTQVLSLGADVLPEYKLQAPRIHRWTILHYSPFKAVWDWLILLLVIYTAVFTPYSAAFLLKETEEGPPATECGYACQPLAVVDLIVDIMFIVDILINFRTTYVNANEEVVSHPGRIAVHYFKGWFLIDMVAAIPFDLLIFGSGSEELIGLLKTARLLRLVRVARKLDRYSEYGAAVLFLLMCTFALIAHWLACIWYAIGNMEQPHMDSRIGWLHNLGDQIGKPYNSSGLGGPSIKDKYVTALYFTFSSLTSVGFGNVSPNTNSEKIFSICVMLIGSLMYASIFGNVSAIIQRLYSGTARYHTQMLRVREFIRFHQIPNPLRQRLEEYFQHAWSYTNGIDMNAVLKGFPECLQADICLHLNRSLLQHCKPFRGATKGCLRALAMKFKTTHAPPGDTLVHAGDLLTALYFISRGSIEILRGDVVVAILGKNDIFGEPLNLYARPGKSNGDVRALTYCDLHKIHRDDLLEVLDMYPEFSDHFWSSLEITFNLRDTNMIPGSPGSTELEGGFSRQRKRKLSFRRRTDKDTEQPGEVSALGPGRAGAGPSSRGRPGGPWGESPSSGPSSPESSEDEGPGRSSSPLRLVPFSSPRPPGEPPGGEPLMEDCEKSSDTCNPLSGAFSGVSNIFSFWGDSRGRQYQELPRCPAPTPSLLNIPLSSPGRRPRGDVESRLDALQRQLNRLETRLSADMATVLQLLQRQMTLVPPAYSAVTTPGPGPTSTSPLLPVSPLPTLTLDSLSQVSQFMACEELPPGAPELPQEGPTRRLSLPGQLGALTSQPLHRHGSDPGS

SMILES: Cc1nc2cc(OC(F)(F)F)ccc2n1-c1ccc(C(=O)NC2CC2)s1
- IC50 [1]: < 2.8 µM

SMILES: Cc1cc(NC(=O)/C(C#N)=C(\O)C2CC2)ccc1C(F)(F)F
- half-life [2]: 3.5 h

SMILES: O=C1C(O)=C([C@H]2CC[C@H](c3ccc(Cl)cc3)CC2)C(=O)c2ccccc21 [ATOVAQUONE]
- IC50 [3]: 0.7 µM
- Ki [4]: 27 µM
- IC50 [5]: 14.5 µM
- Kic [6]: 2.7 µM
- Kic [7]: 60 nM

SMILES: C/C(O)=C(\C#N)C(=O)Nc1ccc(C(F)(F)F)cc1 [TERIFLUNOMIDE]
- half-life [2]: > 336 h

Reference: ChEMBL document CHEMBL2331175, “On dihydroorotate dehydrogenases and their inhibitors and uses” (J Med Chem, 2013)
